Results published in patent US11707442B2, “Antibacterial and antifungal compounds” (The General Hospital Corporation, priority 2015, dated 2023).
Read-outs that look alike come from different tables or passages of the source.

How the values were obtained:
[1] = system: Exponential-phase MRSA cells; assay: Killing kinetics assay; type: cell-based, Staphylococcus aureus; settings: 10×MIC, result in words
Description: Killing kinetics assay. An S. aureus overnight culture was diluted 1:10,000 in 25 ml fresh TSB in a 250 ml flask. In order to obtain exponential-phase cells, the diluted cell suspension was incubated at 37° C., with shaking at 225 rpm for 4 h until the OD600 nm was 0.4 (˜2×10^7 CFU/ml). 0.5 ml of the exponential phase cell culture was added to the wells of a 2 ml deep well assay block (Corning Costar 3960) containing 0.5 ml of pre-warmed TSB with twice the desired concentrations of compounds. The assay block was sealed with a gas-permeable Breathe-Easy membrane and incubated at 37° C. shaking at 225 rpm. At specific times, 50 μl samples were removed, serially diluted and spot-plated onto tryptic soy agar (TSA, BD) plates to enumerate the number of cells. These experiments were conducted in triplicate.
Colony forming unit counts of cells were measured by serial dilution and plating on TSA plates. The data points on the x-axis are below the level of detection (2×10^2 CFU/mL). Results are shown as means±s.d.; n=3.

[2] = system: P. aeruginosa; assay: MIC, broth microdilution; type: cell-based, Pseudomonas aeruginosa; settings: Pseudomonas aeruginosa; P. aeruginosa PA14; read-out: Minimum inhibitory concentration
[3] = system: Salmonella typhimurium strains TA 1535 and TA 1538; settings: for genotoxic potential: Ames test, result in words
Description: The Ames test was conducted using histidine auxotroph Salmonella typhimurium strains TA 1535 and TA 1538. To test mutagenic potential of the synthetic retinoids themselves and their metabolic products, the assay was conducted both with and without rat liver S9 fraction (Moltox, Boone, N.C., USA). Briefly, 100 μl of bacterial overnight cultures was added into 500 μl of phosphate buffer containing a range of amounts of the retinoids dissolved in 10 μl DMSO and with or without 4% S9. After incubation at 37° C. for 1 h, the samples were added into 2 ml of soft agar including 0.5 mM of histidine/biotin, mixed, and poured onto minimal glucose agar plates. The plates were incubated at 37° C. for 48 h, and the revertant colonies were counted. 10 μl DMSO was used as a negative control. […] 5 μg/plate 2-aminoanthracene was used as a positive control for both strains in the metabolic activation system. The test was performed in triplicate.

[4] = system: E. aerogenes ATCC 13048; assay: MIC, broth microdilution; type: cell-based, Enterobacter aerogenes; settings: Klebsiella aerogenes, ATCC13048; E. aerogenes ATCC 13048; read-out: Minimum inhibitory concentration
Summary of the method: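 MIC by CLSI broth microdilution (M07-A8) in MH broth; E. aerogenes, K. pneumoniae and A. baumannii pre-grown in LB, E. faecium in BHI, at 37° C. Inoculum at initial OD600 0.03, incubated 18 hrs at 35° C., growth read as absorbance at 595 nm.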

[5] = system: C. elegans infected with MRSA strain MW2; type: in vivo; settings: for C. elegans animals surviving MRSA infection: concentrations above the MIC
Description: The C. elegans-MRSA liquid infection assay has been described (Rajamuthiah et al. Plos One. 2014; 9(2):e89189). In brief, 4,500 glp-4 (bn2); sek-1(km4) L1 hatchlings were grown on SK-HB101 agar plates for 52 hours at the restrictive temperature of 25° C. until animals became sterile young adults and later harvested with M9 buffer. S. aureus MW2 was grown overnight at 37° C. in TSB, first under aerobic conditions and later shifted to anaerobic growth conditions at 37° C. The infection assay was performed in standard 384-well assay plates, in the presence of the compound being tested or 1% dimethyl sulfoxide (DMSO) as a control. Bacteria were added to the wells at a final OD600 of 0.06, followed by the use of a Complex Object Parametric Analyzer and Sorter (COPAS) large particle sorter (Union Biometrica, Holliston, Mass., USA) to transfer 15 adult worms to each well of an assay plate. After 5 days of incubation in a humidified chamber at 25° C., the bacteria and other debris were washed from the wells with a microplate washer and the worms were stained with the vital dye Sytox Orange (Life Technologies). After overnight incubation at 25° C. in a humidified chamber, the plates were imaged using an Image Xpress Micro automated microscope (Molecular Devices, Sunnyvale, Calif., USA), capturing both transmitted light and TRITC (535 nm excitation, 610 nm emission) fluorescent images with a 2× objective. The images from the infection assay were processed using the open source image analysis software CellProfiler and analysis modules as described previously. The ratio of Sytox worm area to bright field worm area, and the resultant percentage survival data, is calculated by the software for each well of the assay plates. The assay was performed in triplicate comparing the survival of worms at various concentrations of drugs.
Killing assays were carried out as described in Methods using S. aureus MRSA MW2 and 10 μg/ml retinoids, 10 μg/ml vancomycin (positive control), or 1% DMSO (negative control) at 25° C. for 5 days. Data are representative of three independent experiments. (B) Chemical structures of synthetic retinoids. (C) Growth of MRSA strain MW2 exposed to the indicated concentrations of compounds was quantified by measuring OD600 after 18 h in tryptic soy broth (TSB). (D) C. elegans infected with MRSA strain MW2 was treated with indicated concentrations of compounds. Percent survival of C. elegans was normalized to C. elegans treated with DMSO. (E-F) MRSA persisters prepared as described in Methods were treated with the indicated concentrations of each retinoid. Viability was measured by serial dilution and plating on TSA plates. The data points on the x-axis are below the level of detection (2×10^2 CFU/ml). (E,F) Results are shown as means±s.d.; n=3.

O=C(O)/C=C/c1ccc(-c2ccc(O)c(C34CC5CC(CC(C5)C3)C4)c2)cc1 [Adarotene, (2E)-3-(4′-Hydroxy-3′-tricyclo[3.3.1.13,7]dec-1-yl[1,1′-biphenyl]-4-yl)-2-propenoic acid]
killing kinetics [1]: fast killing kinetics | MIC [2]: > 64 µg/mL | genotoxic potential [3]: did not show significant genotoxic potential | Number of revertants (T1535) ([3]; With S9, 5 μg/plate): 6 ± 2 | Number of revertants (T1538) ([3]; With S9, 5 μg/plate): 8 ± 4 | Number of revertants (T1535) ([3]; With S9, 25 μg/plate): 7 ± 3 | Number of revertants (T1538) ([3]; With S9, 25 μg/plate): 8 ± 1 | Number of revertants (T1535) ([3]; With S9, 100 μg/plate): 7 ± 1 | Number of revertants (T1538) ([3]; With S9, 100 μg/plate): 7 ± 3 | Number of revertants (T1535) ([3]; Without S9, 5 μg/plate): 6 ± 1 | Number of revertants (T1538) ([3]; Without S9, 5 μg/plate): 6 ± 1 | Number of revertants (T1535) ([3]; Without S9, 25 μg/plate): 7 ± 3 | Number of revertants (T1538) ([3]; Without S9, 25 μg/plate): 4 ± 3 | Number of revertants (T1535) ([3]; Without S9, 100 μg/plate): 6 ± 2 | Number of revertants (T1538) ([3]; Without S9, 100 μg/plate): 5 ± 2 | MIC [4]: > 64 µg/mL | rescue of C. elegans from MRSA infection ([5]; result in words): rescued

O=C(O)c1ccc2cc(-c3ccc(O)c(C45CC6CC(CC(C6)C4)C5)c3)ccc2c1 [CD437, 6-(4-hydroxy-3-tricyclo[3.3.1.13,7]dec-1-ylphenyl)-2-naphthalenecarboxylic acid]
killing kinetics [1]: fast killing kinetics | MIC [2]: > 64 µg/mL | genotoxic potential [3]: did not show significant genotoxic potential | Number of revertants (T1535) ([3]; With S9, 5 μg/plate): 6 ± 3 | Number of revertants (T1538) ([3]; With S9, 5 μg/plate): 9 ± 3 | Number of revertants (T1535) ([3]; With S9, 25 μg/plate): 8 ± 3 | Number of revertants (T1538) ([3]; With S9, 25 μg/plate): 10 ± 2 | Number of revertants (T1535) ([3]; With S9, 100 μg/plate): 8 ± 3 | Number of revertants (T1538) ([3]; With S9, 100 μg/plate): 6 ± 1 | Number of revertants (T1535) ([3]; Without S9, 5 μg/plate): 6 ± 2 | Number of revertants (T1538) ([3]; Without S9, 5 μg/plate): 5 ± 2 | Number of revertants (T1535) ([3]; Without S9, 25 μg/plate): 5 ± 2 | Number of revertants (T1538) ([3]; Without S9, 25 μg/plate): 4 ± 1 | Number of revertants (T1535) ([3]; Without S9, 100 μg/plate): 8 ± 2 | Number of revertants (T1538) ([3]; Without S9, 100 μg/plate): 3 ± 3 | MIC [4]: > 64 µg/mL | C. elegans animals surviving MRSA infection [5]: 100%

O=C(O)c1ccc(-c2ccc3cc(O)c(C45CC6CC(CC(C6)C4)C5)cc3c2)cc1 [CD1530, 4-(6-hydroxy-7-tricyclo[3.3.1.13,7]dec-1-yl-2-naphthalenyl)-benzoic acid]
killing kinetics [1]: fast killing kinetics | MIC [2]: > 64 µg/mL | genotoxic potential [3]: did not show significant genotoxic potential | Number of revertants (T1535) ([3]; With S9, 5 μg/plate): 7 ± 3 | Number of revertants (T1538) ([3]; With S9, 5 μg/plate): 7 ± 3 | Number of revertants (T1535) ([3]; With S9, 25 μg/plate): 7 ± 2 | Number of revertants (T1538) ([3]; With S9, 25 μg/plate): 10 ± 4 | Number of revertants (T1535) ([3]; With S9, 100 μg/plate): 8 ± 2 | Number of revertants (T1538) ([3]; With S9, 100 μg/plate): 8 ± 2 | Number of revertants (T1535) ([3]; Without S9, 5 μg/plate): 7 ± 3 | Number of revertants (T1538) ([3]; Without S9, 5 μg/plate): 3 ± 3 | Number of revertants (T1535) ([3]; Without S9, 25 μg/plate): 7 ± 2 | Number of revertants (T1538) ([3]; Without S9, 25 μg/plate): 4 ± 2 | Number of revertants (T1535) ([3]; Without S9, 100 μg/plate): 8 ± 4 | Number of revertants (T1538) ([3]; Without S9, 100 μg/plate): 4 ± 2 | MIC [4]: > 64 µg/mL | C. elegans animals surviving MRSA infection [5]: 100% | toxicity to C. elegans ([5]; up to 50 μg/ml): nontoxic
